Several values for one entry are separate records, joined by “and”; a condition that tells them apart may be missing. Equal values may be shown once. Inconclusive results and toxic doses are left out. No stated cut-off is given here; in the data, active means T/C of 150% or more; inactive means T/C below 125%.
System: L1210 leukemia ip in BDF1 mice, survival T/C
Experiment: NCI In Vivo Anticancer Drug Screen. Data for tumor model L1210 Leukemia (intraperitoneal) in B6D2F1 (BDF1) mice
Conditions: higher = longer survival
How it was run: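 Transplantable tumor model; survival measured in treated vs vehicle control mice. Value = treated/control.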

[1] = endpoint: mean survival time, dose: 100.0 mg/kg/injection, schedule: Q01DX001 (ip), vehicle: saline
[2] = endpoint: mean survival time, dose: 200.0 mg/kg/injection, schedule: Q01DX001 (ip), vehicle: saline
[3] = endpoint: mean survival time, dose: 400.0 mg/kg/injection, schedule: Q01DX001 (ip), vehicle: saline
[4] = endpoint: mean survival time, dose: 100.0 mg/kg/injection, schedule: Q01DX001 (ip), vehicle: carboxymethylcellulose (CMC)
[5] = endpoint: mean survival time, dose: 200.0 mg/kg/injection, schedule: Q01DX001 (ip), vehicle: carboxymethylcellulose (CMC)
[6] = endpoint: mean survival time, dose: 400.0 mg/kg/injection, schedule: Q01DX001 (ip), vehicle: carboxymethylcellulose (CMC)
[7] = endpoint: mean survival time, dose: 100.0 mg/kg/injection, schedule: Q01DX009 (ip), vehicle: Klucel (hydroxypropylcellulose) (HPC)
[8] = endpoint: mean survival time, dose: 100.0 mg/kg/injection, schedule: Q04DX003 (ip), vehicle: Klucel (hydroxypropylcellulose) (HPC)
[9] = endpoint: mean survival time, dose: 200.0 mg/kg/injection, schedule: Q01DX009 (ip), vehicle: Klucel (hydroxypropylcellulose) (HPC)
[10] = endpoint: mean survival time, dose: 200.0 mg/kg/injection, schedule: Q04DX003 (ip), vehicle: Klucel (hydroxypropylcellulose) (HPC)
[11] = endpoint: mean survival time, dose: 400.0 mg/kg/injection, schedule: Q01DX009 (ip), vehicle: Klucel (hydroxypropylcellulose) (HPC)
[12] = endpoint: mean survival time, dose: 400.0 mg/kg/injection, schedule: Q04DX003 (ip), vehicle: Klucel (hydroxypropylcellulose) (HPC)

Measured: T/C

CCOC(=O)C(Nc1ccc(SC)cc1)c1ccccc1 (stereo not given)
inactive: [1] 110 % of control | [2] 98 % of control | [3] 98 % of control

O=C1c2ccccc2-c2ccccc2C12N=Nc1ccccc12 (stereo not given)
inactive: endpoint: mean survival time, dose: 25.0 mg/kg/injection, schedule: Q04DX002 (ip), vehicle: Klucel (hydroxypropylcellulose) (HPC) 101 % of control | endpoint: mean survival time, dose: 50.0 mg/kg/injection, schedule: Q04DX002 (ip), vehicle: Klucel (hydroxypropylcellulose) (HPC) 97 % of control | endpoint: mean survival time, dose: 100.0 mg/kg/injection, schedule: Q04DX002 (ip), vehicle: Klucel (hydroxypropylcellulose) (HPC) 101 % of control

O=C1NC(=O)C2(CCc3ccc(N(CCCl)CCCl)cc32)N1 (stereo not given)
inactive: endpoint: median survival time, dose: 100.0 mg/kg/injection, schedule: Q01DX009 (ip), vehicle: Klucel (hydroxypropylcellulose) (HPC) 105 % of control

CC(Cc1ccc2c(c1)OCO2)[N+](=O)[O-] (stereo not given)
inactive: endpoint: mean survival time, dose: 150.0 mg/kg/injection, schedule: Q04DX003 (ip), vehicle: saline with Tween-80 102 % of control | endpoint: mean survival time, dose: 300.0 mg/kg/injection, schedule: Q04DX003 (ip), vehicle: saline with Tween-80 100 % of control

c1ccc(-c2cnc3nc4ccccc4nc3n2)cc1
inactive: endpoint: mean survival time, dose: 75.0 mg/kg/injection, schedule: Q01DX001 (ip), vehicle: other 87 % of control | endpoint: mean survival time, dose: 150.0 mg/kg/injection, schedule: Q01DX001 (ip), vehicle: other 91 % of control | endpoint: mean survival time, dose: 300.0 mg/kg/injection, schedule: Q01DX001 (ip), vehicle: other 97 % of control

Clc1nc2ccccc2nc1C(Cl)Cl
inactive: endpoint: mean survival time, dose: 100.0 mg/kg/injection, schedule: Q01DX001 (ip), vehicle: Klucel (hydroxypropylcellulose) (HPC) 101 % of control | endpoint: mean survival time, dose: 200.0 mg/kg/injection, schedule: Q01DX001 (ip), vehicle: Klucel (hydroxypropylcellulose) (HPC) 110 % of control

O=C(Nc1ccc(Br)c2c(NC(=O)c3ccccc3)ccc(Br)c12)c1ccccc1
inactive: endpoint: mean survival time, dose: 50.0 mg/kg/injection, schedule: Q01DX001 (ip), vehicle: saline 110 % of control | [1] 101 % of control | [2] 95 % of control | [3] 98 % of control

O=[N+]([O-])c1ccc(N=Nc2ccc3c(c2)-c2ccccc2C3=P(c2ccccc2)(c2ccccc2)c2ccccc2)cc1
inactive: [4] 108 % of control | [5] 98 % of control | [6] 93 % of control

O=C1OCC/C1=C\c1ccc2c(c1)OCO2
inactive: endpoint: mean survival time, dose: 100.0 mg/kg/injection, schedule: Q04DX003 (ip), vehicle: saline with Tween-80 105 % of control | endpoint: mean survival time, dose: 200.0 mg/kg/injection, schedule: Q04DX003 (ip), vehicle: saline with Tween-80 101 % of control | endpoint: mean survival time, dose: 400.0 mg/kg/injection, schedule: Q04DX003 (ip), vehicle: saline with Tween-80 90 % of control

CCCCSC(C)=N
inactive: endpoint: mean survival time, dose: 100.0 mg/kg/injection, schedule: Q04DX002 (ip), vehicle: saline 97 % of control | endpoint: mean survival time, dose: 200.0 mg/kg/injection, schedule: Q04DX002 (ip), vehicle: saline 105 % of control | endpoint: mean survival time, dose: 400.0 mg/kg/injection, schedule: Q04DX002 (ip), vehicle: saline 97 % of control

Cn1c(=O)c2[nH]c(CCCc3nc4c([nH]3)c(=O)n(C)c(=O)n4C)nc2n(C)c1=O
inactive: endpoint: mean survival time, dose: 25.0 mg/kg/injection, schedule: Q01DX001 (ip), vehicle: carboxymethylcellulose (CMC) 93 % of control | endpoint: mean survival time, dose: 50.0 mg/kg/injection, schedule: Q01DX001 (ip), vehicle: carboxymethylcellulose (CMC) 105 % of control | [4] 98 % of control | [5] 101 % of control

CCOC(=O)C1CC=CCC1C(=O)OCC (stereo not given)
inactive: endpoint: mean survival time, dose: 50.0 mg/kg/injection, schedule: Q01DX009 (ip), vehicle: Klucel (hydroxypropylcellulose) (HPC) 105 % of control | endpoint: mean survival time, dose: 75.0 mg/kg/injection, schedule: Q01DX009 (ip), vehicle: Klucel (hydroxypropylcellulose) (HPC) 108 % of control | endpoint: mean survival time, dose: 150.0 mg/kg/injection, schedule: Q01DX009 (ip), vehicle: Klucel (hydroxypropylcellulose) (HPC) 112 % of control

COc1ccc2c(c1O)C13CCN(C)C(C2)C1CCC(O)C3 (stereo not given)
inactive: [7] 95 % of control | [8] 104 % of control | [9] 101 % of control | [10] 88 % of control | [11] 98 % of control | [12] 86 % of control

N#Cc1ncc(C(Cl)Cl)nc1Cl
inactive: endpoint: mean survival time, dose: 100.0 mg/kg/injection, schedule: Q04DX003 (ip), vehicle: saline 101 % of control | endpoint: mean survival time, dose: 200.0 mg/kg/injection, schedule: Q04DX003 (ip), vehicle: saline 92 % of control

CCOC(=O)c1cc(C)nc(Cl)c1C#N
inactive: [4] 96 % of control | [5] 96 % of control | [6] 93 % of control

CC(=O)c1cc(O)c2ccccc2c1O
inactive: endpoint: mean survival time, dose: 100.0 mg/kg/injection, schedule: Q01DX001 (ip), vehicle: water 98 % of control | endpoint: mean survival time, dose: 200.0 mg/kg/injection, schedule: Q01DX001 (ip), vehicle: water 89 % of control

Cc1c(Cl)cccc1NC(=O)Sc1ccc(C(C)(C)C)cc1
inactive: [7] 100 % of control | [9] 90 % of control | [11] 98 % of control

N#C/C(=C\c1ccco1)C1CCCCC1
inactive: endpoint: mean survival time, dose: 100.0 mg/kg/injection, schedule: Q04DX002 (ip), vehicle: other 86 % of control | endpoint: mean survival time, dose: 200.0 mg/kg/injection, schedule: Q04DX002 (ip), vehicle: other 104 % of control

SC1(S)CN2CCC1CC2
inactive: endpoint: mean survival time, dose: 6.25 mg/kg/injection, schedule: Q01DX009 (ip), vehicle: saline 96 % of control | endpoint: mean survival time, dose: 6.25 mg/kg/injection, schedule: Q04DX003 (ip), vehicle: saline 105 % of control | endpoint: mean survival time, dose: 12.5 mg/kg/injection, schedule: Q01DX009 (ip), vehicle: saline 94 % of control | endpoint: mean survival time, dose: 12.5 mg/kg/injection, schedule: Q04DX003 (ip), vehicle: saline 91 % of control | endpoint: mean survival time, dose: 25.0 mg/kg/injection, schedule: Q04DX003 (ip), vehicle: saline 93 % of control

CCCCC(=O)N/N=C/c1ccc(OC)c(OC)c1
inactive: [1] 100 % of control | [2] 94 % of control | [3] 91 % of control

COc1ccccc1/C=N\NC(=O)c1ccco1
inactive: [4] 95 % of control | [5] 93 % of control | [6] 95 % of control

O=c1cc(O)nc2ccccn12
inactive: [7] 99 % of control | [8] 95 % of control | [9] 97 % of control | [10] 96 % of control | [11] 92 % of control | [12] 91 % of control

CCCCCCCCCCCCCCCCC1(c2ccccc2)NC(=O)NC1=O (stereo not given)
inactive: [8] 93 % of control | [10] 95 % of control | [12] 98 % of control

CCCCOc1ccc(S(=O)(=O)c2ccc(OCCCC)c([N+](=O)[O-])c2)cc1[N+](=O)[O-]
inactive: endpoint: mean survival time, dose: 75.0 mg/kg/injection, schedule: Q04DX002 (ip), vehicle: gum acacia 97 % of control | endpoint: mean survival time, dose: 150.0 mg/kg/injection, schedule: Q04DX002 (ip), vehicle: gum acacia 97 % of control | endpoint: mean survival time, dose: 300.0 mg/kg/injection, schedule: Q04DX002 (ip), vehicle: gum acacia 97 % of control

COc1ccc(Cl)cc1NC(=O)COc1ccc(Cl)cc1
inactive: [7] 96 % of control | [8] 102 % of control | [9] 107 % of control | [10] 122 % of control | [11] 96 % of control | [12] 90 % of control

COc1cccc(NC(=S)Nc2cccc(OC)c2)c1
inactive: endpoint: mean survival time, dose: 100.0 mg/kg/injection, schedule: Q01DX001 (ip), vehicle: saline with Tween-80 108 % of control | endpoint: mean survival time, dose: 100.0 mg/kg/injection, schedule: Q01DX009 (ip), vehicle: saline with Tween-80 95 % of control | endpoint: mean survival time, dose: 100.0 mg/kg/injection, schedule: Q04DX002 (ip), vehicle: saline with Tween-80 91 % of control | endpoint: mean survival time, dose: 200.0 mg/kg/injection, schedule: Q01DX001 (ip), vehicle: saline with Tween-80 104 % of control | endpoint: mean survival time, dose: 200.0 mg/kg/injection, schedule: Q01DX009 (ip), vehicle: saline with Tween-80 92 % of control and 100 % of control | endpoint: mean survival time, dose: 200.0 mg/kg/injection, schedule: Q04DX002 (ip), vehicle: saline with Tween-80 94 % of control and 96 % of control | endpoint: mean survival time, dose: 400.0 mg/kg/injection, schedule: Q01DX001 (ip), vehicle: saline with Tween-80 101 % of control | endpoint: mean survival time, dose: 400.0 mg/kg/injection, schedule: Q01DX009 (ip), vehicle: saline with Tween-80 90 % of control | endpoint: mean survival time, dose: 400.0 mg/kg/injection, schedule: Q04DX002 (ip), vehicle: saline with Tween-80 104 % of control and 88 % of control
